Target: REV-ERBα LBD (Homo sapiens, UniProt P20393, DEL324-422)
Test: biochemical
Settings: FRET assay; 6xHistag-REV-ERBα LBD with FITC-labeled SMRT corepressor peptide; read-out: REVERBα (Agonism of REV-ERBα, EC50)
Procedure, shortened: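 TR-FRET corepressor recruitment: 4 nM His-tagged human REV-ERBα LBD (residues 281-614 Δ324-422, or 381-579), 1 nM Tb-anti-His antibody and 400 nM FITC-SMRT peptide in pH 7.4 phosphate buffer with DTT; ligands in triplicate, 2 h at 4° C. 520/495 nm ratio fitted to sigmoidal dose-response for EC50.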

Sequence of REV-ERBα LBD (P20393 with tags, fused parts or gaps DEL324-422): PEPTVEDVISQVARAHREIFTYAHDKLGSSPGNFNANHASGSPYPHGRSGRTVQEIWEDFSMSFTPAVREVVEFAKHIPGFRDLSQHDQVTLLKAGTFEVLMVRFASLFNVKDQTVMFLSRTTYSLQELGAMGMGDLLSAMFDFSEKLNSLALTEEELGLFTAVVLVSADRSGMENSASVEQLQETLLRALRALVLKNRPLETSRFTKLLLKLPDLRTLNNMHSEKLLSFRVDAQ
Sequence of REV-ERBα LBD (Q9Y618 2335-2356 partner limits assumed): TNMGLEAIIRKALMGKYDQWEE

Row | Structure (SMILES) | EC50
1 | CC(C)(C)Cn1cc([C@H](NS(=O)(=O)C2CC2)C(F)F)c2cc(F)c(-c3cccnc3C(F)(F)F)nc21 [Compound 145, (S)—N-(2,2-difluoro-1-(5-fluoro-1-neopentyl-6-(2-(trifluoromethyl)pyridin-3-yl)-1H-pyrrolo[2,3-b]pyridin-3-yl)ethyl)cyclopropanesulfonamide] | < 100 nM
2 | O=S(=O)(N[C@@H](c1cn(C2CCC2)c2cc(-c3cc(F)cnc3C(F)(F)F)c(F)cc12)C(F)F)C1CC1 [Compound 149, (S)—N-(1-(1-cyclobutyl-5-fluoro-6-(5-fluoro-2-(trifluoromethyl)pyridin-3-yl)-1H-indol-3-yl)-2,2-difluoroethyl)cyclopropanesulfonamide] | < 100 nM
3 | CN(C)S(=O)(=O)N[C@@H](c1cn(CC(C)(C)C)c2cc(-c3ccccc3C(F)(F)F)c(F)cc12)C(F)F [Compound 54] | < 100 nM
4 | CC(NS(=O)(=O)C1CC1)c1cn(CC(C)(C)C)c2cc(-c3ncccc3C(F)(F)F)c(F)cc12 (single isomer, unassigned) [Compound 18, (S or R)—N-(1-(5-fluoro-1-neopentyl-6-(3-(trifluoromethyl)pyridine-2-yl)-1H-indol-3-yl)ethyl)cyclopropane sulfonamide] | < 100 nM
5 | CC(C)(C)Cn1cc([C@H](NS(=O)(=O)C2CC2)C(F)F)c2cc(F)c(-c3ncccc3C3CC3)cc21 [Compound 115, (S)—N-(1-(6-(3-cyclopropylpyridin-2-yl)-5-fluoro-1-neopentyl-1H-indol-3-yl)-2,2-difluoroethyl)cyclopropanesulfonamide] | < 100 nM
6 | CN(C)S(=O)(=O)N[C@@H](c1cn(CC(C)(C)C)c2cc(-c3ncc(F)cc3C(F)(F)F)ccc12)C(F)F [Compound 74] | < 100 nM
7 | CC(C)(C)Cn1cc([C@H](NS(=O)(=O)C2CC2)C(F)F)c2ccc(-c3c(C#N)ccnc3C(F)(F)F)cc21 [Compound 52, (S)—N-(1-(6-(4-cyano-2-(trifluoromethyl)pyridin-3-yl)-1-neopentyl-1H-indol-3-yl)-2,2-difluoroethyl)cyclopropanesulfonamide] | 100 to 1000 nM
8 | CC(NS(=O)(=O)C1CC1)c1cn(CC(C)(C)C)c2cc(-c3cccnc3C(F)(F)F)c(F)cc12 (single isomer, unassigned) [Compound 29, (S or R) N-[1-[1-(2,2-dimethylpropyl)-5-fluoro-6-[2-(trifluoromethyl)-3-pyridyl]indol-3-yl]ethyl]cyclopropanesulfonamide] | 100 to 1000 nM

Further lines, results first:

Row | EC50 | Structure (SMILES)
9 | < 100 nM | CC(C)(C)Cn1cc([C@H](NS(=O)(=O)C2CC2)C(F)F)c2cc(F)c(-c3ncc(F)cc3Cl)cc21 [Compound 93, (S)—N-(1-(6-(3-chloro-5-fluoropyridin-2-yl)-5-fluoro-1-neopentyl-1H-indol-3-yl)-2,2-difluoroethyl)cyclopropanesulfonamide]
10 | < 100 nM | CC(C)(C)Cn1cc([C@H](NS(=O)(=O)C2CC2)C(F)F)c2cc(F)c(-c3ncc(F)cc3C(F)(F)F)cc21 [Compound 56, (S)—N-(2,2-difluoro-1-(5-fluoro-6-(5-fluoro-3-(trifluoromethyl)pyridin-2-yl)-1-neopentyl-1H-indol-3-yl)ethyl)cyclopropanesulfonamide]
11 | < 100 nM | CC(C)(C)Cn1cc([C@H](NS(=O)(=O)C2CC2)C(F)F)c2cc(F)c(-c3ccc(F)cc3C(F)F)cc21 [Compound 117, (S)—N-(1-(6-(2-(difluoromethyl)-4-fluorophenyl)-5-fluoro-1-neopentyl-1H-indol-3-yl)-2,2-difluoroethyl)cyclopropanesulfonamide]
12 | < 100 nM | [2H]C1([2H])CC(S(=O)(=O)N[C@@H](c2cn(CC(C)(C)C)c3cc(-c4cccnc4C(F)(F)F)c(F)cc23)C(F)F)C1 [Compound 45, (S)—N-(2,2-difluoro-1-(5-fluoro-1-neopentyl-6-(2-(trifluoromethyl)pyridin-3-yl)-1H-indol-3-yl)ethyl)cyclobutane-1-sulfonamide-3,3-d2]
